Legend:
HBV = assay: Test of anti HBV activity in vitro (viral DNA by qPCR); format: cell-based; settings: Hepatitis B virus; HepG2.2.15 cells, viral DNA in cell culture supernatant by qPCR; read-out: EC50 values of the compound of the invention on viral replication
Experimental: Test 1: Test Method of Calculating Anti HBV EC50
HBV Cell Line and Culture Conditions
HepG2.2.15 (SELLS, PNAS, 1987 and SELLS, JV, 1988) chromosomes have an integrated complete HBV genome, and stably express viral RNA and viral protein. HepG2.2.15 cells can secrete mature HBV particles, HBsAg and HBeAg, to medium. HepG2.2.15 cells were cultured in DMEM containing 10% fetal bovine serum, 100 U/mL penicillin, 100 U/mL streptomycin, 1% non essential amino acid, 1 mM sodium pyruvate and 300 μg/mL G418.
Viral particles DNA secreted from HepG2.2.15 cells can be quantified by qPCR, and the effect of the compound on viral replication can be detected.
Test of Anti HBV Activity In Vitro
8000 HepG 2.2.15 cells per well were seeded into a 96-well plate, the plate was cultured at 37° C. and 5% CO2 for 3 days till the cells grew to full wells. Old liquid medium can be removed and replaced with new medium (200 μL) on day 0.
Formulating the compound and treating the cells in the experiment of anti virus: the compound was dissolved in DMSO to a concentration of 30 mM, and then the compound solution was diluted with DMSO to a concentration of 800 μM, and then eight dilutions at 4 fold were performed, the highest concentration is 800 μM. The serial diluted compound was added to the above plate at 1 μL per well, the highest final concentration in the experiment is 4 μM (200 fold dilution). TDF (tenofovir dipiroxil fumarate, Selleck, Cat S1400) has a highest concentration of 4 μM as a positive control. 1 μL of DMSO was added in to the […] at a final concentration of 0.5%, TDF was added in to the […] at a final concentration of 1 μM.
Detection of Viral Genomic DNA by aPCR
Primer: HBV-For-202, […]; HBV-Rev-315, […]. Copies of virus can be calculated using a standard curve plotted by using plasmid containing HBV genome and using SYBR Premix Ex Taq II—Takara DRR081S kit and 1 μL cell culture supernatant as a template. EC50 values of the compound on viral replication were calculated by a four parametric nonlinear regression model using Graphpad Prism 5 software to manage concentration—viral copy number.

[1] = Cytotoxicity test with CellTiter Glo; format: cell-based; settings: human, HepG2.2.15 cells, highest concentration 150 μM, read-out: CC50 values of the compounds of the invention
Experimental: Test 2: Cytotoxicity and Selectivity Index
Methods of Testing Cytotoxicity and Selectivity Index
The serial diluted compound was added to a 384 wells plate at 50 μL HepG2.2.15 cell per well (3000 cells per well), the highest final concentration in the experiment is 150 μM (200 fold dilution). The plate was cultured at 37° C. in an incubator with CO2 for 4 days, and cytotoxicity of the compound was detected using CellTiter Glo agent.
The cytotoxicity of the compound was calculated using the following formulate, cytotoxicity (%)=100−(detection value/mean of DMSO control wells values×100) CC50 values were calculated by a four parametric nonlinear regression model using Graphpad Prism 5 software to manage concentration−cytotoxicity (%).

## COC(=O)C1=C(CN2CCN3C(=O)N(c4ccc(Oc5ccc(C(=O)NCCCC(=O)N(C)C)cc5)cc4)C[C@@H]3C2)NC(c2nccs2)=N[C@H]1c1ccc(F)cc1Cl [Example 71, (R)-methyl 4-(2-chloro-4-fluorophenyl)-6-(((S)-2-(4-(4-((4-(dimethylamino)-4-oxobutyl)carbamoyl)phenoxy)phenyl)-3-oxohexahydroimidazo[1,5-a]pyrazin-7(1H)-yl)methyl)-2-(thiazol-2-yl)-1,4-dihydropyrimidine-5-carboxylate]
HBV
  EC50: 16.6 nM
[1]
  CC50 at 4 days: > 150000 nM

## COC(=O)C1=C(CN2CCN3C(=O)N(c4ccc(Oc5ccc(C(=O)N6CCOC[C@@H]6CCC(=O)O)cc5)cc4)C[C@@H]3C2)NC(c2nccs2)=N[C@H]1c1ccc(F)cc1Cl [Example 73, 3-((S)-4-(4-(4-((S)-7-(((R)-6-(2-chloro-4-fluorophenyl)-5-(methoxycarbonyl)-2-(thiazol-2-yl)-3,6-dihydropyrimidin-4-yl)methyl)-3-oxohexahydroimidazo[1,5-a]pyrazin-2(3H)-yl)phenoxy)benzoyl)morpholin-3-yl)propanoic acid]
[1]
  CC50 at 4 days: > 150000 nM

## COC(=O)C1=C(CN2CCN3C(=O)N(c4cc(F)cc(-c5ccc(C(=O)O)cc5F)c4)C[C@@H]3C2)NC(c2nccs2)=N[C@H]1c1ccc(F)cc1Cl [Example 118, 3′-((S)-7-(((R)-6-(2-chloro-4-fluorophenyl)-5-(methoxycarbonyl)-2-(thiazol-2-yl)-3,6-dihydropyrimidin-4-yl)methyl)-3-oxohexahydroimidazo[1,5-a]pyrazin-2(3H)-yl)-2,5′-difluoro-[1,1′-biphenyl]-4-carboxylic acid]
HBV
  EC50: 8.9 nM
[1]
  CC50 at 4 days: > 150000 nM

## COC(=O)C1=C(CN2CCN3C(=O)N(c4ccc(Sc5ccc(OC(C)C)cc5)cc4)C[C@@H]3C2)NC(c2nccs2)=N[C@H]1c1ccc(F)cc1Cl [Example 105, (R)-methyl 4-(2-chloro-4-fluorophenyl)-6-(((S)-2-(4-((4-isopropoxyphenyl)thio)phenyl)-3-oxohexahydroimidazo[1,5-a]pyrazin-7(1H)-yl)methyl)-2-(thiazol-2-yl)-1,4-dihydropyrimidine-5-carboxylate]
HBV
  EC50: 29 nM
[1]
  CC50 at 4 days: > 150000 nM

## COC(=O)C1=C(CN2CCN3C(=O)N(c4cc(F)cc(-c5ccc(C(=O)O)c(F)c5)c4)C[C@@H]3C2)NC(c2nccs2)=N[C@H]1c1ccc(F)cc1Cl [Example 119]
HBV
  EC50: 15.6 nM
[1]
  CC50 at 4 days: > 150000 nM

## COC(=O)C1=C(CN2CCN3C(=O)N(c4ccc(Oc5ccc(C(=O)NC(C)CO)cc5)cc4)C[C@@H]3C2)NC(c2nccs2)=N[C@H]1c1ccc(F)cc1Cl (stereo partly drawn) [Example 72, (4R)-methyl 4-(2-chloro-4-fluorophenyl)-6-(((8aS)-2-(4-(4-((1-hydroxyprop-2-yl)carbamoyl)phenoxy)phenyl)-3-oxohexahydroimidazo[1,5-a]pyrazin-7(1H)-yl)methyl)-2-(thiazol-2-yl)-1,4-dihydropyrimidine-5-carboxylate]
HBV
  EC50: 21.2 nM
[1]
  CC50 at 4 days: > 150000 nM

## COC(=O)C1=C(CN2CCN3C(=O)N(c4cc(F)cc(N5CCC(C(=O)O)CC5)c4)C[C@@H]3C2)NC(c2nccs2)=N[C@H]1c1ccc(F)cc1Cl [Example 32, 1-(3-((S)-7-(((R)-6-(2-chloro-4-fluorophenyl)-5-(methoxycarbonyl)-2-(thiazol-2-yl)-3,6-dihydropyrimidin-4-yl)methyl)-3-oxohexahydroimidazo[1,5-a]pyrazin-2(3H)-yl)-5-fluorophenyl)piperidine-4-carboxylic acid]
HBV
  EC50: 6 nM
[1]
  CC50 at 4 days: > 150000 nM

## COC(=O)C1=C(CN2CCN3C(=O)N(c4ccc(-c5ccc(C(=O)O)c(F)c5)c(F)c4)C[C@@H]3C2)NC(c2nccs2)=N[C@H]1c1ccc(F)cc1Cl [Example 34, 4′-((S)-7-(((R)-6-(2-chloro-4-fluorophenyl)-5-(methoxycarbonyl)-2-(thiazol-2-yl)-3,6-dihydropyrimidin-4-yl)methyl)-3-oxohexahydroimidazo[1,5-a]pyrazin-2(3H)-yl)-2′,3-difluoro-[1,1′-diphenyl]-4-carboxylic acid]
HBV
  EC50: 7 nM
[1]
  CC50 at 4 days: > 150000 nM

## COC(=O)C1=C(CN2CCN3C(=O)N(c4cncc(Oc5ccc(C(=O)O)cc5F)c4)C[C@@H]3C2)NC(c2nccs2)=N[C@H]1c1ccc(F)cc1Cl [Example 81, 4-((5-((S)-7-(((R)-6-(2-chloro-4-fluorophenyl)-5-(methoxycarbonyl)-2-(thiazol-2-yl)-3,6-dihydropyrimidin-4-yl)methyl)-3-oxohexahydroimidazo[1,5-a]pyrazin-2(3H)-yl)pyridin-3-yl)oxy)-3-fluorobenzoic acid]
[1]
  CC50 at 4 days: > 150000 nM

## COC(=O)C1=C(CN2CCN3C(=O)N(c4ccc(Oc5ccc(OCC(F)(F)F)cc5)cc4)C[C@@H]3C2)NC(c2nccs2)=N[C@H]1c1ccc(F)cc1Cl [Example 104, (R)-methyl 4-(2-chloro-4-fluorophenyl)-6-(((S)-3-oxo-2-(4-(4-(2,2,2-trifluoroethoxy)phenoxy)phenyl)hexahydroimidazo[1,5-a]pyrazin-7(1H)-yl)methyl)-2-(thiazol-2-yl)-1,4-dihydropyrimidine-5-carboxylate]
[1]
  CC50 at 4 days: > 150000 nM

## COC(=O)C1=C(CN2CCN3C(=O)N(c4ccc(Oc5ccc(C(=O)NCC(C)(C)C(=O)O)cc5)cc4)C[C@@H]3C2)NC(c2nccs2)=N[C@H]1c1ccc(F)cc1Cl [Example 75, 3-(4-(4-((S)-7-(((R)-6-(2-chloro-4-fluorophenyl)-5-(methoxycarbonyl)-2-(thiazol-2-yl)-3,6-dihydropyrimidin-4-yl)methyl)-3-oxohexahydroimidazo[1,5-a]pyrazin-2(3H)-yl)phenoxy)benzamido)-2,2-dimethylpropanoic acid]
[1]
  CC50 at 4 days: > 150000 nM

## CONC(=O)c1ccc(C#CCN2C[C@@H]3CN(CC4=C(C(=O)OC)[C@H](c5ccc(F)cc5Cl)N=C(c5nccs5)N4)CCN3C2=O)cc1 [Example 40, (R)-methyl 4-(2-chloro-4-fluorophenyl)-6-(((S)-2-(3-(4-(methoxycarbamoyl)phenyl)prop-2-yn-1-yl)-3-oxohexahydroimidazo[1,5-a]pyrazin-7(1H)-yl)methyl)-2-(thiazol-2-yl)-1,4-dihydropyrimidine-5-carboxylate]
HBV
  EC50: 8.2 nM

## COC(=O)C1=C(CN2CCN3C(=O)N(c4ccc(Oc5ccc(C(=O)NCc6ccccc6Cl)cc5)cc4)C[C@@H]3C2)NC(c2nccs2)=N[C@H]1c1ccc(F)cc1Cl [Example 62, (R)-methyl 4-(2-chloro-4-fluorophenyl)-6-(((S)-2-(4-(4-((2-chlorobenzyl)carbamoyl)phenoxy)phenyl)-3-oxohexahydroimidazo[1,5-a]pyrazin-7(1H)-yl)methyl)-2-(thiazol-2-yl)-1,4-dihydropyrimidine-5-carboxylate]
[1]
  CC50 at 4 days: > 150000 nM

## COC(=O)C1=C(CN2CCN3C(=O)N(c4ccc(Oc5ccc(C(=O)O)cc5F)cc4F)C[C@@H]3C2)NC(c2nccs2)=N[C@H]1c1ccc(F)cc1Cl [Example 14, 4-(4-((S)-7-(((R)-6-(2-chloro-4-fluorophenyl)-5-(methoxycarbonyl)-2-(thiazol-2-yl)-3,6-dihydropyrimidin-4-yl)methyl)-3-oxohexahydroimidazo[1,5-a]pyrazin-2(3H)-yl)-3-fluorophenoxy)-3-fluorobenzoic acid]
HBV
  EC50: 22.7 nM

## COC(=O)C1=C(CN2CCN3C(=O)N(c4ccc(Oc5ccc(C(=O)O)cn5)cc4)C[C@@H]3C2)NC(c2nccs2)=N[C@H]1c1ccc(F)cc1Cl [Example 78, 6-(4-((S)-7-(((R)-6-(2-chloro-4-fluorophenyl)-5-(methoxycarbonyl)-2-(thiazol-2-yl)-3,6-dihydropyrimidin-4-yl)methyl)-3-oxohexahydroimidazo[1,5-a]pyrazin-2(3H)-yl)phenoxy)nicotinic acid]
HBV
  EC50: 38.7 nM

## COC(=O)C1=C(CN2CCN3C(=O)N(CC#Cc4ccc(C(N)=O)cc4)C[C@@H]3C2)NC(c2nccs2)=N[C@H]1c1ccc(F)cc1Cl [Example 39, (R)-methyl 6-(((S)-2-(3-(4-carbamoylphenyl)prop-2-yn-1-yl)-3-oxohexahydroimidazo[1,5-a]pyrazin-7(1H)-yl)methyl)-4-(2-chloro-4-fluorophenyl)-2-(thiazol-2-yl)-1,4-dihydropyrimidine-5-carboxylate]
HBV
  EC50: 6.6 nM
